Article PMC5557014 (Biochemical pharmacology, 2017)
Read-outs that look alike come from different tables or passages of the source.

Experiments:
HCMV DNA polymerase = HCMV DNA polymerase (Human cytomegalovirus, UniProt P08546); assay: HCMV DNA polymerase enzyme assay; type: biochemical; details: read-out: IC50 HCMV DNA pol, calf thymus DNA
HIV-1 RT K70Q = assay: Mutant HIV-1 RT assay K70Q; type: biochemical; details: Poly rI.dC [^3H]dCTP
HIV-1 RT M184V + E138K = assay: Mutant HIV-1 RT assay M184V + E138K; type: biochemical; details: Poly rI.dC [^3H]dCTP
HIV-1 RT M184I + E138K = assay: Mutant HIV-1 RT assay M184I + E138K; type: biochemical
HIV-1 RT M184V + Y115F = assay: Mutant HIV-1 RT assay M184V + Y115F; type: biochemical; details: Poly rI.dC [^3H]dCTP
HIV-1 RT M184I = assay: Mutant HIV-1 RT assay M184I; type: biochemical; details: Poly rI.dC [^3H]dCTP
HIV-1 RT L100I = details: Poly rA.dT [^3H]dTTP
HIV-1 RT = HIV-1 RT (Human immunodeficiency virus type 1 group M subtype B, UniProt P04585); assay: HIV-1 RT assay with homopolymeric template/primers; type: biochemical; details: read-out: IC50 HIV-1 RT
[1] = target: T1, cellular DNA polymerase α (Homo sapiens, UniProt P09884); assay: Cellular DNA polymerase α assay; type: biochemical; details: read-out: IC50 α DNA pol; calf thymus DNA, [^3H]dGTP
T1 sequence (P09884 1-1462): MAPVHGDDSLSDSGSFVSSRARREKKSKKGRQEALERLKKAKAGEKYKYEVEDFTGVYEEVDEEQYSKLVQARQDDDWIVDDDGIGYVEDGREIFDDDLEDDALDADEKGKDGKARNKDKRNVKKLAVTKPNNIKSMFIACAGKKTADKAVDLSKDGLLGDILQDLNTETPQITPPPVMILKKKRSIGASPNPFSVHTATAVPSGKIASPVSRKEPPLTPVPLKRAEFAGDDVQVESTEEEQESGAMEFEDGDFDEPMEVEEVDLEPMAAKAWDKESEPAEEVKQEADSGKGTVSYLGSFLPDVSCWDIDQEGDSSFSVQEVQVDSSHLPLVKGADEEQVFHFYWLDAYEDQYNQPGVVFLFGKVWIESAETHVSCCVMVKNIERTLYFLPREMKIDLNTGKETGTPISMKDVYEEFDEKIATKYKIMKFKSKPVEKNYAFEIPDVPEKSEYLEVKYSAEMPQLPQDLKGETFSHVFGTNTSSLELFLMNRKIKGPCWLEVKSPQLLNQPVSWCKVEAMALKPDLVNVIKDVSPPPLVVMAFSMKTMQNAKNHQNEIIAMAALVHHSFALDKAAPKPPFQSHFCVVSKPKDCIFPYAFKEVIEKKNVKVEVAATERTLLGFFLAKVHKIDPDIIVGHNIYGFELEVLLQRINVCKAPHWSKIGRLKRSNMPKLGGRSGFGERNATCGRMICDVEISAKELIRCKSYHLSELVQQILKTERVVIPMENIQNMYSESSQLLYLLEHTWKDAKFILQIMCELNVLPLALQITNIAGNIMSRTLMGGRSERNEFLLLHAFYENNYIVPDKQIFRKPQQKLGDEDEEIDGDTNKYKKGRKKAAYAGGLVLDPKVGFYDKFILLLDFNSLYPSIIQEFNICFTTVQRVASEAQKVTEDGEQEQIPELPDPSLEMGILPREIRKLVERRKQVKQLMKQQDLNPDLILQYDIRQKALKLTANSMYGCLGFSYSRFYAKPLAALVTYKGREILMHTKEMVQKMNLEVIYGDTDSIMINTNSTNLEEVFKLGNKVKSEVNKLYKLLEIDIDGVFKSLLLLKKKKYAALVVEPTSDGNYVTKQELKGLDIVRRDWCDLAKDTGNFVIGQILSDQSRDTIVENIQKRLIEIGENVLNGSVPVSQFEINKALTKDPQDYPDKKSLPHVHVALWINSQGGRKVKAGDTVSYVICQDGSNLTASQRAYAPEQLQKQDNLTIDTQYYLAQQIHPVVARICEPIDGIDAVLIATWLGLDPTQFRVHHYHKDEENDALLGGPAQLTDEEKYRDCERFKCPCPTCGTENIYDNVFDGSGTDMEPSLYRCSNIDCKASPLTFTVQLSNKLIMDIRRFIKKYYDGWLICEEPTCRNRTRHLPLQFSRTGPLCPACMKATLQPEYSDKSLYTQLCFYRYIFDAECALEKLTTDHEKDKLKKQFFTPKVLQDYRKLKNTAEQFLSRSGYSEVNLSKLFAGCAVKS

HIV-1 RT F61A = assay: Mutant HIV-1 RT assay F61A; type: biochemical
HIV-1 RT M184V = assay: Mutant HIV-1 RT assay M184V; type: biochemical; details: Poly rI.dC [^3H]dCTP
HIV-1 RT E138K = assay: Mutant HIV-1 RT assay E138K; type: biochemical
HIV-1 RT K65R = assay: Mutant HIV-1 RT assay K65R; type: biochemical
HSV-1 DNA polymerase = HSV-1 DNA polymerase (Human herpesvirus 1, UniProt P04293); assay: HSV-1 DNA polymerase enzyme assay; type: biochemical; details: read-out: IC50 HSV-1 DNA pol, calf thymus DNA
HIV-1 RT V75I = assay: Mutant HIV-1 RT assay V75I; type: biochemical; details: Poly rA.dT [^3H]dTTP
HIV-1 RT Q151M = assay: Mutant HIV-1 RT assay Q151M; type: biochemical
HIV-1 RT K70R = assay: Mutant HIV-1 RT assay K70R; type: biochemical; details: Poly rA.dT [^3H]dTTP
HIV-1 RT K70E = assay: Mutant HIV-1 RT assay K70E; type: biochemical
[2] = target: cellular DNA polymerase β (Homo sapiens, UniProt P06746); assay: Cellular DNA polymerase β assay; type: biochemical; details: read-out: IC50 β DNA pol; calf thymus DNA, [^3H]dGTP

HCMV DNA polymerase, sequence (P08546 whole entry): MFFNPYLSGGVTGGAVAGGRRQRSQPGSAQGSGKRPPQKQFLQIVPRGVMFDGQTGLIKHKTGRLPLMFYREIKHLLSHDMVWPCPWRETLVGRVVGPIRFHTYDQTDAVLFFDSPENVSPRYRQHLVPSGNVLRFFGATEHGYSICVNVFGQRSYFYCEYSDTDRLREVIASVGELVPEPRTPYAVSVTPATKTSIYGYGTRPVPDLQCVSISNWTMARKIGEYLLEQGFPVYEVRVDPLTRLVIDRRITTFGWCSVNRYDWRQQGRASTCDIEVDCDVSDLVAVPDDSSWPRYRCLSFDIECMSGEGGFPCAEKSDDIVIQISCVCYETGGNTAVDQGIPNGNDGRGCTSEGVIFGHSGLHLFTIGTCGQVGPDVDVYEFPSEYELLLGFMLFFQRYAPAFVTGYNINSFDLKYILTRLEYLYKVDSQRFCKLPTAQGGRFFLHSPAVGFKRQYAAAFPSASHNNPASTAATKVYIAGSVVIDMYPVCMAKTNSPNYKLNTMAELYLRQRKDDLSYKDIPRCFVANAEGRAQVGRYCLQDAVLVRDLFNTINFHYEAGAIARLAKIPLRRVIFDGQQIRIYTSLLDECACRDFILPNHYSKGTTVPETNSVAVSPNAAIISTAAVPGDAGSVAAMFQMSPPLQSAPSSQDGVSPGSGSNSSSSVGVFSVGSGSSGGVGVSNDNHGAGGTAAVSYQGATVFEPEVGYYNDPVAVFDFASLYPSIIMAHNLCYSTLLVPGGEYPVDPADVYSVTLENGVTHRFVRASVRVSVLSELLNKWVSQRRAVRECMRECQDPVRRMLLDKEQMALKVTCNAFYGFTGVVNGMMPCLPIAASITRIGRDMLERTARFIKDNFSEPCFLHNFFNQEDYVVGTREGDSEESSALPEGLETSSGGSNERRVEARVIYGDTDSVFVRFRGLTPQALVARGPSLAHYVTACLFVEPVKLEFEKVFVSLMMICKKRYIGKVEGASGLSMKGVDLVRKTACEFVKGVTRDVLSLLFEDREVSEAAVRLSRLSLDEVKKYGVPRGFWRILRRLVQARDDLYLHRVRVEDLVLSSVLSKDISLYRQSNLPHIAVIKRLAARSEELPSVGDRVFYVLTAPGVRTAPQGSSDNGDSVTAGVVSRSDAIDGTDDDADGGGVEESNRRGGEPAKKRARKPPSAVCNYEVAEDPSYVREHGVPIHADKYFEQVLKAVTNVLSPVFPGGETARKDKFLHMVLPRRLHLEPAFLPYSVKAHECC
HSV-1 DNA polymerase, sequence (P04293 whole entry): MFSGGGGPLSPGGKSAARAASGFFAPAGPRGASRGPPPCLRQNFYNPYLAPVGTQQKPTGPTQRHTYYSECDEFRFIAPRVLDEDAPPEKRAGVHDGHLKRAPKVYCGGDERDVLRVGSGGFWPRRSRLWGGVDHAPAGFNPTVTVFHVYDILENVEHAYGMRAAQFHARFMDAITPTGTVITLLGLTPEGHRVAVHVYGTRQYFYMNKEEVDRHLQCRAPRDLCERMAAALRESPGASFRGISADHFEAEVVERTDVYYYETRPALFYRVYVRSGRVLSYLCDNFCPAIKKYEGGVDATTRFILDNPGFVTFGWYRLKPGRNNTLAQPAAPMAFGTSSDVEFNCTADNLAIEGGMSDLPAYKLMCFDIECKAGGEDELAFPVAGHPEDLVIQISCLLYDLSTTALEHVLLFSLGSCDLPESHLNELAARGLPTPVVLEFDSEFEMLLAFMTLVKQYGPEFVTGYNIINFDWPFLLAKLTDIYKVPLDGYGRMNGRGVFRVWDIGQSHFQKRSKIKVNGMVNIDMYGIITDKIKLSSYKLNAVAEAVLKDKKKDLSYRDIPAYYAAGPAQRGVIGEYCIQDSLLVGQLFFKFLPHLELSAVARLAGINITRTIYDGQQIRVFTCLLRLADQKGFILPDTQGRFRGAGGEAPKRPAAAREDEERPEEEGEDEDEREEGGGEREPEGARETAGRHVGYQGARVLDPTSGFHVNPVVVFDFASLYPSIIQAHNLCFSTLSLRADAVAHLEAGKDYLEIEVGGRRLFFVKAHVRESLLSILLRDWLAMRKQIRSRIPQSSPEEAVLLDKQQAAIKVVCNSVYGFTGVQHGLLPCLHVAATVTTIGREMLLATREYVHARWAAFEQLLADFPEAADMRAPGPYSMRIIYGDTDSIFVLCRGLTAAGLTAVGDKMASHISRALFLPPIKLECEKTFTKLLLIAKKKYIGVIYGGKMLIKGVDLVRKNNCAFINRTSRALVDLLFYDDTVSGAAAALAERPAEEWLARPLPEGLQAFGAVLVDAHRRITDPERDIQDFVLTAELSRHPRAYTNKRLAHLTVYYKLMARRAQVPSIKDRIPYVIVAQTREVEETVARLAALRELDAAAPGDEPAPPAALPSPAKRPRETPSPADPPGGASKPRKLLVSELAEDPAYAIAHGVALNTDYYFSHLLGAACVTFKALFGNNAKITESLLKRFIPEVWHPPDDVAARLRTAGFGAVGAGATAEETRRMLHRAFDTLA

Cn1c2ccccc2c2c1cc(C#N)c(=O)n2-c1ccc([N+](=O)[O-])cc1 [INDOPY]
IC50 (HCMV DNA polymerase; [^3H]dGTP): > 100 µM
IC50 (HCMV DNA polymerase; [^3H]dTTP): > 100 µM
Fold-resistance compared to wild-type (HIV-1 RT K70Q): 0.7 fold
Fold-resistance compared to wild-type (HIV-1 RT M184V + E138K): 1.0 fold
Fold-resistance compared to wild-type (HIV-1 RT M184I + E138K; Poly rA.dT [^3H]dTTP): 1.1 fold
Fold-resistance compared to wild-type (HIV-1 RT M184I + E138K; Poly rI.dC [^3H]dCTP): 0.6 fold
Fold-resistance compared to wild-type (HIV-1 RT Y181C; Poly rA.dT [^3H]dTTP): 1.3 fold
Fold-resistance compared to wild-type (HIV-1 RT Y181C; Poly rI.dC [^3H]dCTP): ≥ 6.7 fold
Fold-resistance compared to wild-type (HIV-1 RT M184V + Y115F): ≥ 6.7 fold
Fold-resistance compared to wild-type (HIV-1 RT M184I): ≥ 6.7 fold
Fold-resistance compared to wild-type (HIV-1 RT L100I): 3.9 fold
Fold-resistance compared to wild-type (HIV-1 RT K103N; Poly rA.dT [^3H]dTTP): 0.6 fold
Fold-resistance compared to wild-type (HIV-1 RT K103N; Poly rI.dC [^3H]dCTP): 1.1 fold
IC50 (HIV-1 RT; poly rA.dT, [^3H]dTTP): 0.26 ± 0.07 µM
IC50 (HIV-1 RT; poly rC.dG, [^3H]dGTP): > 200 µM
IC50 [1]: > 100 µM
Fold-resistance compared to wild-type (HIV-1 RT F61A; Poly rA.dT [^3H]dTTP): 2.2 fold
Fold-resistance compared to wild-type (HIV-1 RT F61A; Poly rI.dC [^3H]dCTP): 1.9 fold
Fold-resistance compared to wild-type (HIV-1 RT M184V): > 6.7 fold
Fold-resistance compared to wild-type (HIV-1 RT E138K; Poly rA.dT [^3H]dTTP): 0.7 fold
Fold-resistance compared to wild-type (HIV-1 RT E138K; Poly rI.dC [^3H]dCTP): 1.0 fold
Fold-resistance compared to wild-type (HIV-1 RT K65R; Poly rA.dT [^3H]dTTP): 1.0 fold
Fold-resistance compared to wild-type (HIV-1 RT K65R; Poly rI.dC [^3H]dCTP): 1.3 fold
IC50 (HSV-1 DNA polymerase; [^3H]dGTP): > 100 µM
IC50 (HSV-1 DNA polymerase; [^3H]dTTP): > 100 µM
Fold-resistance compared to wild-type (HIV-1 RT V75I): 1.0 fold
Fold-resistance compared to wild-type (HIV-1 RT Q151M; Poly rA.dT [^3H]dTTP): 1.6 fold
Fold-resistance compared to wild-type (HIV-1 RT Q151M; Poly rI.dC [^3H]dCTP): 0.2 fold
Fold-resistance compared to wild-type (HIV-1 RT K70R): 0.6 fold
Fold-resistance compared to wild-type (HIV-1 RT V106A; Poly rA.dT [^3H]dTTP): 1.0 fold
Fold-resistance compared to wild-type (HIV-1 RT V106A; Poly rI.dC [^3H]dCTP): 0.4 fold
Fold-resistance compared to wild-type (HIV-1 RT K70E; Poly rA.dT [^3H]dTTP): 1.5 fold
Fold-resistance compared to wild-type (HIV-1 RT K70E; Poly rI.dC [^3H]dCTP): 0.6 fold
IC50 [2]: > 100 µM
